# Assay results: ChEMBL document CHEMBL6153074, “Discovery of novel dual tubulin and MMPs inhibitors for the treatment of lung cancer and overcoming drug resistance” (Eur J Med Chem, 2025)
# Calls of active or inactive are those of the source. The calls are words filed in the database; no cut-off is given here.
# Assays:
# A549 [1] = experiment: Downregulation of NF-kappaB p65 phosphorylation in TNF-alpha-treated human A549 cells by Western blot analysis; type: functional, cell-based
# A549 [2] = experiment: Induction of cell cycle arrest in human A549 cells assessed as decrease in cyclin B1 by Western blot analysis; type: functional, cell-based
# Tubulin (Homo sapiens) [3] = molecular target: T1, Tubulin (Homo sapiens) (UniProt P68371+Q9H4B7+P0DPH7+P68366+Q13509+Q71U36+P04350+Q3ZCM7+P07437+P68363+Q9BQE3+Q6PEY2+Q13885+Q9BVA1+Q9BUF5); experiment: Inhibition of tubulin polymerization (unknown origin) incubated for 65 mins by fluorescence based analysis; type: protein-complex assay; conditions: dose 0.625-20 µM
# A549 [4] = experiment: Induction of mitochondrial fragmentation in human A549 cells assessed as increase in green fluorescence at 0.5 uM incubated for 24 hrs by JC-1 dye based analysis; type: functional, cell-based
# Stromelysin-1 = Stromelysin-1 (Homo sapiens, UniProt P08254); experiment: Inhibition of MMP-3 (unknown origin) using fluorogenic-McaPro-Leu-Gly-Leu-Dpa-Ala-Arg-NH2 as substrate
# Chain of Stromelysin-1 (P08254 whole entry): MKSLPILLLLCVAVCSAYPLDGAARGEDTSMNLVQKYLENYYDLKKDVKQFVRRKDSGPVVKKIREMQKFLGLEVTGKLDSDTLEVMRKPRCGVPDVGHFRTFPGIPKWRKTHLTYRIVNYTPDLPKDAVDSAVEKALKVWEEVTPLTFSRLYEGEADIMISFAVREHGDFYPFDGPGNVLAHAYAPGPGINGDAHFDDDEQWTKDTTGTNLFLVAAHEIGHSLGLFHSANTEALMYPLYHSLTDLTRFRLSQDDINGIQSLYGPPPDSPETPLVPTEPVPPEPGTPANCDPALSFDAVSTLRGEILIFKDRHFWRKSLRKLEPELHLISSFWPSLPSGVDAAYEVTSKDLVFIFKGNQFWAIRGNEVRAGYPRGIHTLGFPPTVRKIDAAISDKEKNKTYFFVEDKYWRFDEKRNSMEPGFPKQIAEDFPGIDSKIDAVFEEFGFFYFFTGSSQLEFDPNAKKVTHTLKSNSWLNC
# A549 [5] = experiment: Induction of cell cycle arrest in human A549 cells assessed as accumulation at G2 phase at 0.25 uM incubated for 24 hrs by PI staining based flow cytometry (reference value: 3.37 %); type: functional
# A549 [6] = experiment: Induction of intracellular ROS accumulation in human A549 cells at 0.5 uM incubated for 24 hrs by DCFH-DA dye based flow cytometry (reference value: 4.96 %); type: functional
# A549 [7] = experiment: Induction of apoptosis in human A549 cells assessed as increase in Bax level at 0.5 uM incubated for 24 hrs by Western blot analysis; type: functional, cell-based
# Tubulin (Homo sapiens) [8] = molecular target: T1, Tubulin (Homo sapiens); experiment: Disruption of microtubule network in human A549 cells assessed as contraction towards cell border at 2.5 to 5 uM incubated for 24 hrs by immunofluorescence based analysis; conditions: dose 2.5-5 µM
# A549 [9] = experiment: Downregulation of IKK-beta phosphorylation in TNF-alpha-treated human A549 cells by Western blot analysis; type: functional, cell-based
# A549 [10] = experiment: Induction of cell cycle arrest in human A549 cells assessed as accumulation at G2 phase at 0.5 uM incubated for 24 hrs by PI staining based flow cytometry (reference value: 3.37 %); type: functional
# MDA-MB-231 = experiment: Antiproliferative activity against human MDA-MB-231 cells by CCK8 assay
# A549 [11] = experiment: Anti-migration activity in human A549 cells assessed as migration rate at 0.5 uM incubated for 24 hrs by wound healing assay (reference value: 73.94 %); type: functional
# A549 [12] = experiment: Induction of intracellular ROS accumulation in human A549 cells assessed as increase in green fluorescence incubated for 24 hrs by DCFH-DA dye based confocal microscopy; type: functional, cell-based
# A549 [13] = experiment: Induction of cell cycle arrest in human A549 cells assessed as accumulation at S phase at 0.5 uM incubated for 24 hrs by PI staining based flow cytometry (reference value: 37.95 %); type: functional
# A549 [14] = experiment: Induction of apoptosis in human A549 cells assessed as early apoptotic cells at 0.25 uM incubated for 24 hrs by Annexin V-FITC/PI staining based flow cytometry (reference value: 3.04 %); type: functional
# A549 [15] = experiment: Induction of cell cycle arrest in human A549 cells assessed as accumulation at S phase at 0.25 uM incubated for 24 hrs by PI staining based flow cytometry (reference value: 37.95 %); type: functional
# A549 [16] = experiment: Induction of apoptosis in human A549 cells assessed as viable cells at 0.5 uM incubated for 24 hrs by Annexin V-FITC/PI staining based flow cytometry (reference value: 95.82 %); type: functional; conditions: read-out: Activity
# A549 [17] = experiment: Induction of apoptosis in human A549 cells assessed as increase in cleaved caspase-3 level at 0.5 uM incubated for 24 hrs by Western blot analysis; type: functional, cell-based
# [18] = Toxicity in BALB/c mouse xenografted with human A549 cells assessed as effect on spleen at 10 to 20 mg/kg, ip for 3 weeks administered on every 2 days by H and E staining based analysis; type: organism-based; conditions: in vivo, 504 h, dose 10-20 mg/kg
# A549 [19] = experiment: Anti-angiogenesis effect in human A549 cells assessed as disruption of tube-like network formation at 0.25 to 0.5 uM incubated for 6 hrs by tube formation assay; type: functional, cell-based; conditions: dose 0.25-0.5 µM
# A549 [20] = experiment: Induction of mitochondrial membrane potential loss in human A549 cells at 0.5 uM incubated for 24 hrs by JC-1 dye based analysis (reference value: 3.14 %); type: functional
# [21] = Stability of compound in PBS at pH 7.4 measured for 24 to 72 hrs; type: physicochemical; conditions: buffer, time 24-72 hrs
# A549 [22] = experiment: Antitumor activity against human A549 cells xenografted in BALB/c mouse assessed as decrease in Ki67 level at 20 mg/kg, ip for 3 weeks administered on every 2 days by IHC analysis; type: functional, organism-based
# A549 [23] = experiment: Anti-migration activity in human A549 cells assessed as migration rate at 0.25 uM incubated for 24 hrs by wound healing assay (reference value: 73.94 %); type: functional
# [24] = Toxicity in BALB/c mouse xenografted with human A549 cells assessed as effect on liver at 10 to 20 mg/kg, ip for 3 weeks administered on every 2 days by H and E staining based analysis; type: organism-based; conditions: in vivo, 504 h, dose 10-20 mg/kg
# A549 [25] = experiment: Induction of mitochondrial membrane potential loss in human A549 cells at 0.25 uM incubated for 24 hrs by JC-1 dye based analysis (reference value: 3.14 %); type: functional
# [26] = Stability of compound assessed as carboxylesterase (unknown origin)-mediated drug hydrolysis incubated for 4 hrs by RP-HPLC analysis; type: ADME; conditions: human
# [27] = Stability of compound in DMEM containing 1 percent DMF at pH 7.4 measured for 24 to 72 hrs; type: physicochemical; conditions: buffer, time 24-72 hrs
# MCF7 = experiment: Antiproliferative activity against human MCF7 cells by CCK8 assay
# [28] = Antiproliferative activity against human L02 cells by CCK8 assay; type: toxicity, cell-based
# A549 [29] = experiment: cells; conditions: Homo sapiens
# Description: Antiproliferative activity against human A549 cells by CCK8 assay
# A549 [30] = experiment: Induction of apoptosis in human A549 cells assessed as viable cells at 0.25 uM incubated for 24 hrs by Annexin V-FITC/PI staining based flow cytometry (reference value: 95.82 %); type: functional; conditions: read-out: Activity
# NCI-H460 = experiment: Antiproliferative activity against human NCI-H460 cells by CCK8 assay
# [31] = Antiproliferative activity against human MCF-10A cells by CCK8 assay; type: toxicity, cell-based
# A549 [32] = experiment: Induction of cell cycle arrest in human A549 cells assessed as decrease in cdc2 by Western blot analysis; type: functional, cell-based
# A549 [33] = experiment: Induction of apoptosis in human A549 cells assessed as late apoptotic cells at 0.25 uM incubated for 24 hrs by Annexin V-FITC/PI staining based flow cytometry (reference value: 1.01 %); type: functional
# A549 [34] = experiment: Induction of DNA damage in human A549 cells assessed as increase in gamma-H2AX level at 0.5 uM incubated for 24 hrs by immunofluorescence based analysis; type: functional, cell-based
# [35] = Toxicity in BALB/c mouse xenografted with human A549 cells assessed as body weight loss at 10 to 20 mg/kg, ip for 3 weeks administered on every 2 days; type: organism-based; conditions: in vivo, 504 h, dose 10-20 mg/kg
structure (smiles),measurement,setting,value
CCOP(=O)(OCC)C(Nc1ccc(CC(=O)Oc2cc(/C=C/C(=O)c3cc(OC)c(OC)c(OC)c3)ccc2OC)cc1)c1cccc([N+](=O)[O-])c1 (centres undefined),Activity,A549 [1],Active
same,Activity,A549 [2],Active
same,inhibition,Tubulin (Homo sapiens) [3],Dose-dependent-effect
same,Activity,A549 [4],Active
same,IC50,Stromelysin-1,36400 nM
same,Activity,A549 [5],37.79%
same,Activity,A549 [6],70.79%
same,Activity,A549 [7],Active
same,Activity,Tubulin (Homo sapiens) [8],Active
same,Activity,A549 [9],Active
same,Activity,A549 [10],81.23%
same,IC50,MDA-MB-231,296 nM
same,Activity,A549 [11],25.17%
same,Activity,A549 [12],Active
same,Activity,A549 [13],3.19%
same,Activity,A549 [14],16.18%
same,Activity,A549 [15],20.12%
same,viability at 0.5 µM,A549 [16],57.9%
same,Activity,A549 [17],Active
same,Activity,[18],Non-toxic
same,Activity,A549 [19],Active
same,Activity,A549 [20],56.15%
same,Stability,[21],Stable
same,Activity,A549 [22],Active
same,Activity,A549 [23],62.35%
same,Activity,[24],Non-toxic
same,Activity,A549 [25],27.19%
same,Stability,[26],Unstable
same,Stability,[27],Stable
same,IC50,MCF7,253 nM
same,IC50,[28],2210 nM
same,IC50,A549 [29],154 nM
same,viability at 0.25 µM,A549 [30],79.9%
same,IC50,NCI-H460,186 nM
same,IC50,[31],2710 nM
same,Activity,A549 [32],Active
same,Activity,A549 [33],3.62%
same,Activity,A549 [34],Active
same,Activity,[35],Non-toxic
